Results from PMC3626541, “A first in human, safety, pharmacokinetics, and clinical activity phase I study of once weekly administration of the Hsp90 inhibitor ganetespib (STA-9090) in patients with solid malignancies” (BMC Cancer, 2013).
Entries after “also recorded” stand apart in the source; their conditions may differ.

Columns and labels:
[1] = system: patients with advanced solid tumors; assay: Dose escalation: dose-limiting toxicity, MTD and RP2D; type: in vivo, human
Protocol: Ganetespib was administered over a 1-hour infusion, once weekly for 3 weeks of a 4-week cycle. Intra-patient dose escalation was allowed to dose levels shown to be safe and tolerable. The starting dose (7 mg/m^2) was selected based on a conservative estimate using the highest non-severely toxic dose established in a once-weekly, 4-week repeat dose study in cynomolgus monkeys. […] Each cohort consisted of 3 patients, with expansion to 6 patients if 1 of the 3 initial patients experienced a DLT, which was defined as: Grade 4 thrombocytopenia (or Grade 3 with hemorrhage); Grade 4 neutropenia lasting > 7 days (or Grade 3 with fever); Grade 4 anemia; ≥ Grade 3 non-hematologic toxicity (except alopecia); and ≥ Grade 3 hypersensitivity despite premedication. Doses were escalated after all patients in the preceding dose cohort had completed Cycle 1. […] The RP2D was defined as the dose of ganetespib below which 2 of 3 or 2 of 6 patients experienced a DLT.

advanced solid tumors = assay: Tumor response (RECIST v1.0); type: in vivo, human; details: for Disease control rate (≥ 8 weeks): complete and partial responses, and stable disease ≥ 8 weeks; for Disease control rate (≥ 16 weeks): complete and partial responses, and stable disease ≥ 16 weeks; for Best response: Complete response / Best response: Non-evaluable / Best response: Partial response / Best response: Progressive disease / Best response: Stable disease: investigator-evaluated
Protocol: Patients’ demographics and medical history were recorded at baseline. Physical examination and PS were assessed at baseline and on Day 1 of each cycle. Adverse events (AEs), vital signs, hematology and chemistry values, and creatinine clearance were assessed at baseline and weekly during treatment. Toxicity was graded using National Cancer Institute Common Terminology Criteria for Adverse Events (NCI CTCAE), version 3.0. An electrocardiogram (ECG) was performed at baseline, before and after treatment on Days 1 and 15 of Cycles 1 and 2, and on Day 15 of even-numbered cycles thereafter. CT scans were done at baseline and every 8 weeks thereafter. Tumor response was assessed using Response Evaluation Criteria in Solid Tumors (RECIST, v1.0), with confirmation of responses performed at least 4 weeks later.

HSP70 protein in plasma = HSP70 protein in plasma by ELISA; type: in vivo, human; details: for Peak circulating plasma HSP70 level: NSCLC patient, 150 mg/m^2
Protocol: Pre-dose blood samples on Days 1, 8 and 15 of Cycle 1 and 2 were collected for assessment of HSP70 protein in plasma by ELISA. Assays were performed using high sensitivity HSP70 ELISA kits (Assay Design, Ann Arbor, Michigan), with a sensitivity limit as low as 90 pg/ml, according to manufacturers’ instructions. Results were detected using a microplate ELISA reader at 450 nm with a correction wavelength of 540 nm. Concentrations of HSP70 were normalized to the total protein in each plasma sample.

[2] = Plasma pharmacokinetics (HPLC-MS/MS, non-compartmental); type: in vivo, human
Protocol: Blood samples were taken for ganetespib plasma concentration determination on Days 1 and 15 of Cycle 1 pre-dose, 0.5, 1, 1.5, 2, 4, 6, 8 and 24 h after infusion initiation. Samples were also drawn pre-dose and at 1 h, on Day 8 of Cycle 1 and Days 1, 8 and 15 of subsequent cycles. Plasma was separated and stored at a −70°C until analysis. Analyses were performed by a validated HPLC-MS/MS method under GLP conditions at Synta Pharmaceuticals Corp. Calibration curve coefficients of determination (r^2) ranged from 0.9897 to 0.9992. Back-calibrated calibration standards were in good agreement with QC samples with bias ≤ ± 3%, and calibration-curve r^2 variation was ≤ ± 6.5% across a concentration range of 0.100 through 100 ng/ml.
Pharmacokinetic parameters were computed non-compartmentally using standard methods within a validated installation of WinNonlin (v4.1, Pharsight Corporation, St. Louis, MO). Parameters included the maximum concentration (Cmax), area under the plasma concentration versus time curve (AUC), time of maximum concentration (Tmax), and terminal elimination half-life (t1/2).

[3] = system: patients with advanced solid tumors; set-up: method as in unpublished observation; details: over 400 patients treated in other studies; ref unpublished observation; cited from earlier work
[4] = one NSCLC patient, 150 mg/m^2, BRAF G469A mutation
[5] = 1-hour IV infusion, across doses

CC(C)c1cc(-c2n[nH]c(=O)n2-c2ccc3c(ccn3C)c2)c(O)cc1O [Ganetespib, 5-[2,4-dihydroxy-5-(1 methyl-ethyl)phenyl]-2,4 dihydro-4-(1-methyl-1H indol-5 yl)-3H-1,2,4 triazole-3-one]
DLT: Grade 3 elevated serum amylase ([1]; 150 mg/m^2 dose level): one Grade 3 amylase elevation; also recorded: one patient
DLT: Grade 3 and 4 asthenia ([1]; 259 mg/m^2 dose level): one Grade 3 and one Grade 4 asthenia; also recorded: two patients
DLT: Grade 3 diarrhea ([1]; 259 mg/m^2 dose level, expanded to 6 patients): one Grade 3 diarrhea; also recorded: one additional patient
Patients experiencing DLT ([1]; 7–114 mg/m^2 cohort): None of the patients
Maximum tolerated dose (MTD) ([1]; 1 hour IV infusion once weekly for 3 weeks of a 4-week cycle): 216 mg/m^2
Recommended phase II dose (RP2D) ([1]; human, in vivo, iv, 4 weeks): 200 mg/m^2
Grade 3 fatigue (would have been dose-limiting in dose-escalation phase) ([1]; in vivo): One patient
Disease control rate (≥ 8 weeks) (advanced solid tumors; 259 mg/m^2, n = 6): 2 (33.3) n (%)
Disease control rate (≥ 16 weeks) (advanced solid tumors; 259 mg/m^2, n = 6): 2 (33.3) n (%)
Best response: Complete response (advanced solid tumors; 259 mg/m^2, n = 6): 0 n (%)
Best response: Non-evaluable (advanced solid tumors; 259 mg/m^2, n = 6): 1 (16.7) n (%)
Best response: Partial response (advanced solid tumors; 259 mg/m^2, n = 6): 0 n (%)
Best response: Progressive disease (advanced solid tumors; 259 mg/m^2, n = 6): 3 (50) n (%)
Best response: Stable disease (advanced solid tumors; 259 mg/m^2, n = 6): 2 (33.3) n (%)
Disease control rate (≥ 8 weeks) (advanced solid tumors; 7-114 mg/m^2, n = 25): 11 (44) n (%)
Disease control rate (≥ 16 weeks) (advanced solid tumors; 7-114 mg/m^2, n = 25): 5 (20) n (%)
Best response: Complete response (advanced solid tumors; 7-114 mg/m^2, n = 25): 0 n (%)
Best response: Non-evaluable (advanced solid tumors; 7-114 mg/m^2, n = 25): 4 (16) n (%)
Best response: Partial response (advanced solid tumors; 7-114 mg/m^2, n = 25): 1 (4) n (%)
Best response: Progressive disease (advanced solid tumors; 7-114 mg/m^2, n = 25): 10 (40) n (%)
Best response: Stable disease (advanced solid tumors; 7-114 mg/m^2, n = 25): 10 (40) n (%)
Patients with SD for at least 8 weeks (advanced solid tumors; 10 patients with NSCLC): 60%
Duration of SD (range) (advanced solid tumors; 23 patients with SD): 46 to 563 days
Disease control rate (≥ 8 weeks) (advanced solid tumors; 150-216 mg/m^2, n = 22): 11 (50) n (%)
Disease control rate (≥ 16 weeks) (advanced solid tumors; 150-216 mg/m^2, n = 22): 6 (27.3) n (%)
Best response: Complete response (advanced solid tumors; 150-216 mg/m^2, n = 22): 0 n (%)
Best response: Non-evaluable (advanced solid tumors; 150-216 mg/m^2, n = 22): 6 (27.3) n (%)
Best response: Partial response (advanced solid tumors; 150-216 mg/m^2, n = 22): 0 n (%)
Best response: Progressive disease (advanced solid tumors; 150-216 mg/m^2, n = 22): 5 (22.7) n (%)
Best response: Stable disease (advanced solid tumors; 150-216 mg/m^2, n = 22): 11 (50) n (%)
Disease control rate (≥ 8 weeks) (advanced solid tumors; Overall response, n = 53): 24 (45.3) n (%)
Disease control rate (≥ 16 weeks) (advanced solid tumors; Overall response, n = 53): 13 (24.5) n (%)
Best response: Complete response (advanced solid tumors; Overall response, n = 53): 0 n (%)
Best response: Non-evaluable (advanced solid tumors; Overall response, n = 53): 11 (20.8) n (%)
Best response: Partial response (advanced solid tumors; Overall response, n = 53): 1 (1.9) n (%)
Best response: Progressive disease (advanced solid tumors; Overall response, n = 53): 18 (34) n (%)
Best response: Stable disease (advanced solid tumors; Overall response, n = 53): 23 (43.4) n (%)
Disease control rate (PR and SD ≥ 16 weeks) (advanced solid tumors; all patients): 24.5%
Patients with SD (advanced solid tumors; all patients): 43.4%
Doses generally associated with disease stabilization (advanced solid tumors; heavily pre-treated patients with metastatic cancers): higher than 80 mg/m^2
Patients with PR (advanced solid tumors; metastatic colorectal cancer): One patient
Maximum reduction in target lesions (advanced solid tumors; [4]): 26.5%
Time on study (advanced solid tumors; [4]): 13 months
Maximum reduction in target lesions (advanced solid tumors; one patient with metastatic GIST, 216 mg/m^2, PDGFRA^D842V exon 18 mutation): 18%
Duration of disease stabilization (advanced solid tumors; one patient with neuroendocrine tumor, 259 mg/m^2): over 20 months
Peak circulating plasma HSP70 level (HSP70 protein in plasma; Cycle 1): 750 ng/g
Peak circulating plasma HSP70 level (HSP70 protein in plasma; Cycle 2): 730 ng/g
Hsp70 plasma protein levels versus baseline (HSP70 protein in plasma; Days 8 and 15, pre-dose, majority of patients): significantly elevated
Dose levels at which Hsp70 induction saturates (HSP70 protein in plasma; mean maximum increase of HSP70 in Cycle 1): above 180 mg/m^2
Persistence of elevated HSP70 protein plasma levels following drug exposure (HSP70 protein in plasma; post treatment): over a week; also recorded: at least a week
Tmax occurrence at the time of the 0.5 h sample ([2]; 1-hour IV infusion): 39 % of drug administrations
Mean steady state volume of distribution (Vss) [2, 5]: 107 ± 98 L/m^2
Plasma drug clearance [2, 5]: 28.55 ± 9.33 L/h/m^2
Tmax ([2]; human, plasma, 1-hour IV infusion): 0.79 h
Vd ([2]; human, plasma, 1-hour IV infusion, across doses, read-out: Mean steady state volume of distribution (Vss)): 196 ± 172 L
clearance ([2]; human, plasma, 1-hour IV infusion, across doses, read-out: Plasma drug clearance (converted)): 877 mL/min
half-life ([2]; human, plasma, 1-hour IV infusion, across doses, read-out: Terminal t1/2 (mean ± SD) (converted)): ~7.54 h
Drug accumulation ([2]; once-weekly doses, Day 1 vs Day 15): no apparent drug accumulation
Coefficient of variation for clearance ([2]; overall variability in exposure): 33.8%
Plasma concentration as % of Cmax ([2]; within 8 to 10 h): ~1 % of Cmax
Plasma concentration as % of Cmax ([2]; within 1 h of infusion termination): approximately 10 % of Cmax
Incidence of treatment related visual changes [3]: < 3%
